Results: patent US20240374591A1, “CEREBLON BINDING COMPOUNDS, COMPOSITIONS THEREOF, AND METHODS OF TREATMENT THEREWITH” (CELGENE CORPORATION, priority 2021, published 2024)
Counter-ions that a name gives are not always drawn.

Biological target: T1, AR in VCaP cells (Homo sapiens, UniProt P10275)
T1 construct: endogenous in cells; host or cells: VCaP cells
T1 sequence (P10275 1-920): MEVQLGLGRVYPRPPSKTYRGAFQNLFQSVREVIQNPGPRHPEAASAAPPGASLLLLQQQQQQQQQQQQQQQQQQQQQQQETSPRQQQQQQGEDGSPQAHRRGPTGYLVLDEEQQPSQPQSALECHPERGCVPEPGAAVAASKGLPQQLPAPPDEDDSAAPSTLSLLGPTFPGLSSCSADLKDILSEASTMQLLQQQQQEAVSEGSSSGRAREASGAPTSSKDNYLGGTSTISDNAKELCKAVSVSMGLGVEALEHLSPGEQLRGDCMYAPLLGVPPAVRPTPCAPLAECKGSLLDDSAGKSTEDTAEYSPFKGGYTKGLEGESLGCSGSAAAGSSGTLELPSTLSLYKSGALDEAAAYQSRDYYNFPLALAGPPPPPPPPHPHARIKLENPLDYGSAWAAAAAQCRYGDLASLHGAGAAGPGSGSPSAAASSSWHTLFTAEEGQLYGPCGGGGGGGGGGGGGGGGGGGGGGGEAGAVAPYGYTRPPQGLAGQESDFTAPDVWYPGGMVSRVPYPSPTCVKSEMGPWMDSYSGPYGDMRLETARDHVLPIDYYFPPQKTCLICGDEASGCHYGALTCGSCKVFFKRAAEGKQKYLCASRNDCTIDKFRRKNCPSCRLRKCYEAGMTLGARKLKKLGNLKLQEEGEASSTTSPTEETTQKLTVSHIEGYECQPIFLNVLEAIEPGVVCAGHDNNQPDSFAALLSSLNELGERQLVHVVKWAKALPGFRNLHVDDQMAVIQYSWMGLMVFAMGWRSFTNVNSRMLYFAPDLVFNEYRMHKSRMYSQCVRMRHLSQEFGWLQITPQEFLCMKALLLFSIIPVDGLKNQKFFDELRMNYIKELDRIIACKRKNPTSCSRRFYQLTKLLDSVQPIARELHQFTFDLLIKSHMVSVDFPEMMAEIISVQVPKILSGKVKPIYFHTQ
Assay: VCAP AR Degradation Assay (AR ELISA, 24 h)
Format: cell-based
Settings: for DC50: concentration giving 50% AR degradation vs DMSO control; for remaining activity at up to 5 µM: lowest measured AR level normalized to DMSO control, top concentration 5 μM, read-out: Y
Procedure: VCAP AR Degradation Assay. Test compounds were pre-dispensed into a Corning CellBind 96-well clear bottom plate (Cat #3300) using an acoustic dispenser to make a 10-point concentration series at 1:3 dilution for each compound. The final top concentration of each compound was 5 μM. DMSO at a final concentration of 0.1% was used as a control. VCaP cells cultured in DMEM with 8% fetal bovine serum (FBS) were seeded at 50K cells per well in a 200 μL volume into the compound plate and incubated at 37° C. in a CO2 incubator for 24 h. The medium was carefully removed from the cells and the plate was placed on ice. One hundred μL of ice-cold 1× cell lysis buffer from Cell Signaling Technologies (Cat #9803) was added to each well of the cells and the plate was incubated at 4° C. on a shaker for 1 h. Fifteen μL of cell lysate was used for AR ELISA detection using a PathScan Total Sandwich AR ELISA kit (Cell Signaling Technology, Cat #12580). AR levels in compound-treated wells were normalized to that of DMSO control and expressed as percent of control (PoC) (y). A Four Parameter Logistic Model (Sigmoidal Dose-Response Model) was used to determine the compound's DC50, and EC50, using the following equation: […]
The lowest measured AR level normalized to DMSO control in response to compound treatment, termed Y value, was used to characterize the compound-mediated AR degradation efficiency.

**Q.** For `C[C@@H]1C[C@H](CCO[C@H]2CC[C@H](N3C(=S)N(c4ccc(C#N)c(C(F)(F)F)c4)C(=O)C3(C)C)CC2)C[C@H](C)N1CC(=O)Nc1ccc(C2CCC(=O)NC2=O)nc1` (stereo partly drawn) [Cmpd 17, 2-((2R,4r,6S)-4-(2-(((trans)-4-(3-(4-Cyano-3-(trifluoromethyl)phenyl)-5,5-dimethyl-4-oxo-2-thioxoimidazolidin-1-yl)cyclohexyl)oxy)ethyl)-2,6-dimethylpiperidin-1-yl)-N-(6-(2,6-dioxopiperidin-3-yl)pyridin-3-yl)acetamide], which DC50 is on record?
**A.** The DC50 was ≤ 5 nM.

**Q.** And the remaining activity at up to 5 µM?
**A.** The remaining activity at up to 5 µM was 20 to 30%.

**Q.** With `CC1(C)C(=O)N(c2ccc(C#N)c(C(F)(F)F)c2)C(=S)N1[C@H]1CC[C@H](OCCCN2CCN(CC(=O)Nc3ccc(C4CCC(=O)NC4=O)nc3)[C@@H](C(F)(F)F)C2)CC1` (stereo partly drawn) [Cmpd 25, 2-((R)-4-(3-(((trans)-4-(3-(4-Cyano-3-(trifluoromethyl)phenyl)-5,5-dimethyl-4-oxo-2-thioxoimidazolidin-1-yl)cyclohexyl)oxy)propyl)-2-(trifluoromethyl)piperazin-1-yl)-N-(6-(2,6-dioxopiperidin-3-yl)pyridin-3-yl)acetamide] as the molecule, how does the DC50 read?
**A.** Its DC50 is ≤ 5 nM.

**Q.** What about the remaining activity at up to 5 µM of the same molecule?
**A.** The remaining activity at up to 5 µM was 20 to 30%.

**Q.** Which DC50 does the source give for `C[C@@H]1CN(CCCC[C@H]2CC[C@H](N3C(=S)N(c4ccc(C#N)c(C(F)(F)F)c4)C(=O)C3(C)C)CC2)C[C@H](C)N1CC(=O)Nc1ccc(C2CCC(=O)NC2=O)nc1` (stereo partly drawn) [Cmpd 16, 2-((2R,6S)-4-(4-((trans)-4-(3-(4-Cyano-3-(trifluoromethyl)phenyl)-5,5-dimethyl-4-oxo-2-thioxoimidazolidin-1-yl)cyclohexyl)butyl)-2,6-dimethylpiperazin-1-yl)-N-(6-(2,6-dioxopiperidin-3-yl)pyridin-3-yl)acetamide] here?
**A.** The DC50 was ≤ 5 nM.

**Q.** What about the remaining activity at up to 5 µM of the same molecule?
**A.** The remaining activity at up to 5 µM was 20 to 30%.

**Q.** With `C[C@@H]1CN(CCCO[C@H]2CC[C@H](N3C(=S)N(c4ccc(C#N)c(C(F)(F)F)c4)C(=O)C3(C)C)CC2)C[C@H](C)N1CC(=O)Nc1ccc(C2CCC(=O)NC2=O)nc1` (stereo partly drawn) [Cmpd 5, 2-((2R,6S)-4-(3-((trans-4-(3-(4-Cyano-3-(trifluoromethyl)phenyl)-5,5-dimethyl-4-oxo-2-thioxoimidazolidin-1-yl)cyclohexyl)oxy)propyl)-2,6-dimethylpiperazin-1-yl)-N-(6-(2,6-dioxopiperidin-3-yl)pyridin-3-yl)acetamide hydrochloride] as the molecule, how does the DC50 read?
**A.** Its DC50 is ≤ 5 nM.

**Q.** And the remaining activity at up to 5 µM?
**A.** Its remaining activity at up to 5 µM is 20 to 30%.

**Q.** How did the DC50 turn out when `C[C@@H]1CN(CCC[C@H]2CC[C@H](N3C(=S)N(c4cnc(C#N)c(Cl)c4)C(=O)C3(C)C)CC2)C[C@H](C)N1CC(=O)Nc1ccc(C2CCC(=O)NC2=O)nc1` (stereo partly drawn) [Cmpd 11, 2-((2S,6R)-4-(3-(trans-4-(3-(5-Chloro-6-cyanopyridin-3-yl)-5,5-dimethyl-4-oxo-2-thioxoimidazolidin-1-yl)cyclohexyl)propyl)-2,6-dimethylpiperazin-1-yl)-N-(6-(2,6-dioxopiperidin-3-yl)pyridin-3-yl)acetamide hydrochloride] was run?
**A.** Its DC50 is ≤ 5 nM.

**Q.** What about the remaining activity at up to 5 µM of the same molecule?
**A.** Its remaining activity at up to 5 µM is 20 to 30%.

**Q.** Which DC50 does the source give for `CC1(C)C(=O)N(c2cnc(C#N)c(C(F)(F)F)c2)C(=S)N1[C@H]1CC[C@H](OCCCN2CCN(CC(=O)Nc3ccc(C4CCC(=O)NC4=O)nc3)[C@@H](C(F)(F)F)C2)CC1` (stereo partly drawn) [Cmpd 23, 2-((R)-4-(3-(((trans)-4-(3-(6-Cyano-5-(trifluoromethyl)pyridin-3-yl)-5,5-dimethyl-4-oxo-2-thioxoimidazolidin-1-yl)cyclohexyl)oxy)propyl)-2-(trifluoromethyl)piperazin-1-yl)-N-(6-(2,6-dioxopiperidin-3-yl)pyridin-3-yl)acetamide] here?
**A.** The DC50 was ≤ 5 nM.

**Q.** And the remaining activity at up to 5 µM?
**A.** The remaining activity at up to 5 µM was 0 to 20%.

**Q.** Which DC50 does the source give for `C[C@@H]1CN(CCC[C@H]2CC[C@H](N3C(=S)N(c4ccc(C#N)c(C(F)(F)F)c4)C(=O)C3(C)C)CC2)C[C@H](C)N1CC(=O)Nc1ccc(C2CCC(=O)NC2=O)nc1` (stereo partly drawn) [Cmpd 3, 2-((2R,6S)-4-(3-(trans-4-(3-(4-Cyano-3-(trifluoromethyl)phenyl)-5,5-dimethyl-4-oxo-2-thioxoimidazolidin-1-yl)cyclohexyl)propyl)-2,6-dimethylpiperazin-1-yl)-N-(6-(2,6-dioxopiperidin-3-yl)pyridin-3-yl)acetamide] here?
**A.** Its DC50 is 5 to 10 nM.

**Q.** What about the remaining activity at up to 5 µM of the same molecule?
**A.** The remaining activity at up to 5 µM was 30 to 70%.

**Q.** What does the source list for `C[C@@H]1C[C@H](OCC[C@H]2CC[C@H](N3C(=S)N(c4ccc(C#N)c(C(F)(F)F)c4)C(=O)C3(C)C)CC2)C[C@H](C)N1CC(=O)Nc1ccc(C2CCC(=O)NC2=O)nc1` (stereo partly drawn) [Cmpd 27, 2-((2R,4r,6S)-4-(2-((trans)-4-(3-(4-Cyano-3-(trifluoromethyl)phenyl)-5,5-dimethyl-4-oxo-2-thioxoimidazolidin-1-yl)cyclohexyl)ethoxy)-2,6-dimethylpiperidin-1-yl)-N-(6-(2,6-dioxopiperidin-3-yl)pyridin-3-yl)acetamide]?
**A.** DC50: 5 to 10 nM; remaining activity at up to 5 µM: 20 to 30%

**Q.** With `C[C@@H]1CN(CCO[C@H]2CC[C@H](N3C(=S)N(c4ccc(C#N)c(C(F)(F)F)c4)C(=O)C3(C)C)CC2)C[C@H](C)N1CC(=O)Nc1ccc(N2CCC(=O)NC2=O)nc1` [Cmpd 1, 2-((2R,6S)-4-(2-((trans-4-(3-(4-Cyano-3-(trifluoromethyl)phenyl)-5,5-dimethyl-4-oxo-2-thioxoimidazolidin-1-yl)cyclohexyl)oxy)ethyl)-2,6-dimethylpiperazin-1-yl)-N-(6-(2,4-dioxotetrahydropyrimidin-1(2H)-yl)pyridin-3-yl)acetamide] as the molecule, how does the DC50 read?
**A.** Its DC50 is 100 to 10000 nM.

**Q.** And the remaining activity at up to 5 µM?
**A.** The remaining activity at up to 5 µM was 30 to 70%.

**Q.** Which DC50 does the source give for `C[C@@H]1CN(CCO[C@H]2CC[C@H](N3C(=S)N(c4cnc(C#N)c(Cl)c4)C(=O)C3(C)C)CC2)C[C@H](C)N1CC(=O)Nc1ccc(C2CCC(=O)NC2=O)nc1` (stereo partly drawn) [Cmpd 6, 2-((2R,6S)-4-(2-((trans-4-(3-(5-Chloro-6-cyanopyridin-3-yl)-5,5-dimethyl-4-oxo-2-thioxoimidazolidin-1-yl)cyclohexyl)oxy)ethyl)-2,6-dimethylpiperazin-1-yl)-N-(6-(2,6-dioxopiperidin-3-yl)pyridin-3-yl)acetamide hydrochloride] here?
**A.** The DC50 was ≤ 5 nM.

**Q.** What about the remaining activity at up to 5 µM of the same molecule?
**A.** Its remaining activity at up to 5 µM is 20 to 30%.

**Q.** What does the source list for `C[C@@H]1C[C@H](OCCO[C@H]2CC[C@H](N3C(=S)N(c4ccc(C#N)c(C(F)(F)F)c4)C(=O)C3(C)C)CC2)C[C@H](C)N1CC(=O)Nc1ccc(C2CCC(=O)NC2=O)nc1` (stereo partly drawn) [Cmpd 29, 2-((2R,4r,6S)-4-(2-(((trans)-4-(3-(4-Cyano-3-(trifluoromethyl)phenyl)-5,5-dimethyl-4-oxo-2-thioxoimidazolidin-1-yl)cyclohexyl)oxy)ethoxy)-2,6-dimethylpiperidin-1-yl)-N-(6-(2,6-dioxopiperidin-3-yl)pyridin-3-yl)acetamide]?
**A.** DC50: ≤ 5 nM; remaining activity at up to 5 µM: 20 to 30%

**Q.** `C[C@@H]1C[C@H](CCO[C@H]2CC[C@H](N3C(=S)N(c4cnc(C#N)c(C(F)(F)F)c4)C(=O)C3(C)C)CC2)C[C@H](C)N1CC(=O)Nc1ccc(C2CCC(=O)NC2=O)nc1` (stereo partly drawn) [Cmpd 18, 2-((2R,4r,6S)-4-(2-(((trans)-4-(3-(6-Cyano-5-(trifluoromethyl)pyridin-3-yl)-5,5-dimethyl-4-oxo-2-thioxoimidazolidin-1-yl)cyclohexyl)oxy)ethyl)-2,6-dimethylpiperidin-1-yl)-N-(6-(2,6-dioxopiperidin-3-yl)pyridin-3-yl)acetamide] was tested. Which DC50 did it give?
**A.** Its DC50 is ≤ 5 nM.

**Q.** What about the remaining activity at up to 5 µM of the same molecule?
**A.** The remaining activity at up to 5 µM was 0 to 20%.
